Results taken from US20250327028A1, “ENGINEERED PLATELETS AS TARGETED PROTEIN DEGRADERS” (Wisconsin Alumni Research Foundation, priority 2024, published 2025).

Assays:
WT MDA-MB-231 cells = test: In-gel fluorescence detection of NA-647 internalization in WT MDA-MB-231 cells; format: cell-based, human
Description: In-gel fluorescence detection: In-gel fluorescence was mainly used to investigate the internalization of NeutrAvidin™_647 in HAC-B-treated cancer cells.
Sample preparation: 4T1 or WT MDA-MB-231 cells were seeded in 6-well culture plates with a density of 5×10^4 cells in each well and cultured for 24 h. If HAI pretreatment was performed, the cells were incubated in the HAI-containing blank medium at different concentrations for 2 h and washed with PBS twice before the following treatments. Then, the cells were treated with free HAC-B or the combinations of various ligands at the indicated concentrations for the predetermined time points. Next, the drug-containing medium was removed, and PBS was used to wash the cells twice, followed by incubating the cells in the blank medium containing NeutrAvidin™ DyLight™ 650 (NA-647, Invitrogen/84607) at 0.5 μM for 1 h. Finally, the cells were washed with PBS and lysed on ice with the RIPA buffer containing PMSF (1 mM) and the phosphatase inhibitor cocktail for 30 min. A s for the 4T1 cells cotreated with NA-647 and HAC-B, the cells after 24-h incubation were treated with the blank medium containing NA-647 at 0.5 μM and HAC-B at various concentrations for 2 h before cell lysis.
In-gel fluorescence imaging: After 30-min lysis, the lysates were centrifuged at 10,000 g for 10 minutes at 4° C., and the corresponding supernatants were collected, followed by quantification of the total proteins in the supernatant through the BCA assay. Afterward, the proteins in the supernatant were mixed with ¼ volume of 5× sample buffer formulated by Tris-HCl (pH 6.8, 312.5 mM), sucrose (25%), SDS (10%), bromophenol blue (0.025%), and dithiothreitol (DTT, 250 mM). After incubation for 1 h at room temperature, equal amounts of proteins from different samples ([…] per lane) were loaded into the 12% Bis-Tris gel. After the proteins were separated, the gels were subjected to fluorescence imaging with the ChemiDoc™ MP imaging system (Bio-Rad).

HSP90 and BRD4 = test: co-Immunoprecipitation of BRD4 with anti-HSP90 antibody in 4T1 cell lysate; format: cell-based, murine; conditions: 4T1 cells, 10 μM, 2 h
Description: co-Immunoprecipitation assay: 2×10^6 4T1 cells were seeded in T75 cell culture flasks and cultured for 24 h. Then, the medium in the corresponding flasks was replaced with 15 mL of blank medium with DMSO or iHAC (10 μM). Following incubation for another 2 h, the cells were washed with cold PBS twice and digested with 2 mL of trypsin. As for the iDePMP treatment, 1×10^9 iDePLTs were generated as the above engineering method and suspended in 3 mL of PBS containing thrombin (0.5 U/mL), followed by incubation at 37° C. for 0.5 h. The platelet suspensions were evenly divided and subjected to a sequentially combined centrifugation at 5000 g for 5 min and at 11,000 g for 1 min, followed by further centrifugation at 2500 g for 15 min at room temperature. The combined supernatants were supplemented to 12 mL blank medium to treat 4T1 cells in the relevant flasks. After incubation for 6 h, the cells were washed with cold PBS twice and digested with 2 mL of trypsin. The cell pellets were collected through centrifugation at 1200 rpm for 3 min and washed with cold PBS. The final pellets were directly lysed on ice with RIPA buffer containing PMSF (1 mM) and the phosphatase inhibitor cocktail for 30 min. […] The total proteins in the precleared samples were quantified through the BCA assay, and 20 μL of the precleared solution samples were saved as the input samples. […]

4T1-Luc tumors = test: Treatment efficacy in post-surgery BALB/c mice with orthotopic 4T1-Luc breast cancer; format: in vivo; conditions: 2×10^8 platelets i.v. or free HAC 5 mg/kg i.p., every third day for 4 times
Description: Evaluation of treatment efficacy and biosafety in post-surgical 4T1 tumor-bearing mice: Post-surgery BALB/c mice with orthotopic 4T1-Luc-breast cancer were used to evaluate the tumor recurrence, metastasis, and biosafety profiles after iDePLT or eDePLT treatments. The treatment efficacy of iDePLT was also studied in the post-surgery NSG mice with orthotopic patient-derived xenografts (PDX) breast cancer.
Establishment of post-surgery models with BALB/c mice: 1×10^6 4T1-Luc cells were suspended in a PBS containing 50% Matrigel® (Corning®/354234). Female 8-week-old BALB/c mice were anesthetized and injected with 50 μL of the cell suspensions into the fourth mammary gland fat pads. After the tumor volumes reached about 100-200 mm^3, the tumor-bearing mice were anesthetized and placed under the microscope, followed by surgical resection to totally remove the visible tumor tissues. Following wound closure, the post-surgery mice were randomly assigned to different treatment groups.
Evaluation of treatment efficacy and biosafety in post-surgery BALB/c mice: As for the treatments with platelets, the platelets were freshly isolated from the healthy female BALB/c mice and suspended in PBS for intravenous (i.v.) injection after the necessary engineering. The free iHAC and eHAC were intraperitoneally (i.p.) injected after dispersing in the formulation of 10% DMSO, 40% polyethylene glycol 300 (PEG300), 5% Tween TM-80, and 45% saline. From the same day after surgery, the mice were anesthetized and i.p. injected with D-luciferin potassium salt (150 mg/kg) in 100 μL in PBS. The bioluminescence of post-surgery mice in each group was detected by Perkin Elmer IVIS every five days from the day of surgery, and intensity was analyzed by Living Image Software v.4.3.1. […] During the treatment course, the body weight of each post-surgery mouse was monitored daily. […]

SMILES	internalization of NA-647 after optimized pretreatment (WT MDA-MB-231 cells; HAC-B pretreatment 5 μM, 4 h)	internalization of extracellular NA-647 (WT MDA-MB-231 cells; WT MDA-MB-231 cells, HAC-B pretreatment, then NA-647 0.5 μM 1 h)	BRD4 co-precipitated with anti-HSP90 antibody (HSP90 and BRD4)	lung metastasis (bioluminescence) (4T1-Luc tumors)	tumor recurrence at the surgical site (bioluminescence) (4T1-Luc tumors)
N#CCN(C(=O)CCCC[C@@H]1SC[C@@H]2NC(=O)N[C@@H]21)S(=O)(=O)c1ccc(C(=O)NCCCn2c(Sc3cc4c(cc3I)OCO4)nc3c(N)ncnc32)cc1 [HAC-B, N-(3-(6-amino-8-((6-iodobenzo[d][1,3]dioxol-5-yl)thio)-9H-purin-9-yl)propyl)-4-(N-(cyanomethyl)-N-(5-((3aS,4S,6aR)-2-oxohexahydro-1H-thieno[3,4-d]imidazol-4-yl)pentanoyl)sulfamoyl)benzamide]	substantially internalize NA-647	enhance the internalization of extracellular NA-647 in a time and concentration-dependent manner			
Cc1sc2c(c1C)C(c1ccc(Cl)cc1)=N[C@@H](CC(=O)NCc1cn(CCCC(=O)N(CC#N)S(=O)(=O)c3ccc(C(=O)NCCCn4c(Sc5cc6c(cc5I)OCO6)nc5c(N)ncnc54)cc3)nn1)c1nnc(C)n1-2 [iHAC, (S)—N-(3-(6-amino-8-((6-iodobenzo[d][1,3]dioxol-5-yl)thio)-9H-purin-9-yl)propyl)-4-(N-(4-(4-((2-(4-(4-chlorophenyl)-2,3,9-trimethyl-6H-thieno[3,2-f][1,2,4]triazolo[4,3-a][1,4]diazepin-6-yl)acetamido)methyl)-1H-1,2,3-triazol-1-yl)butanoyl)-N-(cyanomethyl)sulfamoyl)benzamide]			could considerably enhance the interaction between BRD4 and HSP90	started to exhibit obvious lung metastasis from day 15 after surgery	showed some anti-relapse effect during the dosing time, but the mice finally showed substantially recurrent tumors on day 20
